Laboratory results reported in ChEMBL document CHEMBL1124209, “Phosphonoformate and phosphonoacetate derivatives of 5-substituted 2'-deoxyuridines: synthesis and antiviral activity” (1988).
Values after ≈ are worked out from the molar mass of the structure shown.

Assays:
Format in all cases: functional
Human alphaherpesvirus 1 [1] = experiment: Minimum inhibitory concentration causing 25% inhibition cytopathic effect induced by Herpes simplex virus-1 (Brand) in HEp-2 cells
Human alphaherpesvirus 1 [2] = experiment: Minimum inhibitory concentration causing 25% inhibition of cytopathic effect induced by Herpes simplex virus-1 (K979) in HEp-2 cells
Oryctolagus cuniculus = species on record: Oryctolagus cuniculus; experiment: Minimum cytotoxic concentration causing toxic effects on uninfected cells in rabbit
Human alphaherpesvirus 1 [3] = experiment: Minimum inhibitory concentration causing 25% inhibition of cytopathic effect induced by Herpes simplex virus-1 (Brand) in vero cells
Human alphaherpesvirus 1 [4] = experiment: Minimum inhibitory concentration causing 25% inhibition of cytopathic effect induced by herpes simplex virus (HSV)-1 (K979) in vero cells.
Human alphaherpesvirus 2 [5] = experiment: Minimum inhibitory concentration causing 25% inhibition of cytopathic effect induced by Herpes simplex virus(HSV) -2 (thymidine kinase deficient) in vero cells
Human alphaherpesvirus 1 [6] = experiment: Cumulative mortality in percent of HSV-1 infected mice, after peroral administration of 10 mg/kg of compound; settings: route oral
Human alphaherpesvirus 1 [7] = experiment: Minimum inhibitory concentration causing 25% inhibition of cytopathic effect induced by Herpes simplex virus(HSV) -1 (thymidine kinase deficient) in vero cells
Human alphaherpesvirus 1 [8] = experiment: Minimum inhibitory concentration causing 25% inhibition of cytopathic effect induced by Herpes simplex virus(HSV) -1 (thymidine kinase deficient) in HEp-2 cells
Human alphaherpesvirus 1 [9] = experiment: Cumulative mortality in percent of HSV-1 infected mice, after peroral administration of 5 mg/kg of compound; settings: route oral
Human alphaherpesvirus 1 [10] = experiment: Cumulative mortality in percent of HSV-1 infected mice, after intraperitoneal administration of 5 mg/kg of compound
Human alphaherpesvirus 1 [11] = experiment: Mean survival time in HSV-1 infected mice, after intraperitoneal administration of 0.5 mg/kg of compound
Human alphaherpesvirus 1 [12] = experiment: Mean survival time in HSV-1 infected mice, after intraperitoneal administration of 5 mg/kg of compound
Human alphaherpesvirus 1 [13] = experiment: Cumulative mortality in percent of HSV-1 infected mice, after peroral administration of 1 mg/kg of compound; settings: route oral
Human alphaherpesvirus 2 [14] = experiment: Minimum inhibitory concentration causing 25% inhibition of cytopathic effect induced by Herpes simplex virus(HSV) -2 (thymidine kinase deficient) in HEp-2 cells
Human alphaherpesvirus 1 [15] = experiment: Mean survival time in HSV-1 infected mice, after intraperitoneal administration of 1 mg/kg of compound
Human alphaherpesvirus 1 [16] = experiment: Mean survival time in HSV-1 infected mice, after peroral administration of 10 mg/kg of compound; settings: route oral
Human alphaherpesvirus 1 [17] = experiment: Cumulative mortality in percent of HSV-1 infected mice, after intraperitoneal administration of 1 mg/kg of compound
Human alphaherpesvirus 1 [18] = experiment: Cumulative mortality in percent of HSV-1 infected mice, after intraperitoneal administration of 0.5 mg/kg of compound
Human alphaherpesvirus 1 [19] = experiment: Mean survival time in HSV-1 infected mice, after peroral administration of 1 mg/kg of compound; settings: route oral
Human alphaherpesvirus 1 [20] = experiment: Mean survival time in HSV-1 infected mice, after peroral administration of 5 mg/kg of compound; settings: route oral
Mus musculus [21] = experiment: Mean duration of lesions in HSV-1 infected mice, after administration of 0.1 % of compound intracutaneously
Mus musculus [22] = experiment: Cumulative lesions in HSV-1 infected mice, after administration of 0.1 % of compound intracutaneously
Human alphaherpesvirus 2 [23] = experiment: Minimum inhibitory concentration causing 25% inhibition cytopathic effect induced by Herpes simplex virus(HSV) -2 (thymidine kinase deficient) in vero cells

Compound | MIC (Human alphaherpesvirus 1 [1]) | MIC (Human alphaherpesvirus 1 [2]) | MTC (Oryctolagus cuniculus) | MIC (Human alphaherpesvirus 1 [3]) | MIC (Human alphaherpesvirus 1 [4]) | CMP (Human alphaherpesvirus 1 [6]) | MIC (Human alphaherpesvirus 1 [7]) | MIC (Human alphaherpesvirus 1 [8]) | CMP (Human alphaherpesvirus 1 [9]) | CMP (Human alphaherpesvirus 1 [10]) | MST (Human alphaherpesvirus 1 [11]) | MST (Human alphaherpesvirus 1 [12]) | CMP (Human alphaherpesvirus 1 [13]) | MIC (Human alphaherpesvirus 2 [14]) | MST (Human alphaherpesvirus 1 [15]) | MST (Human alphaherpesvirus 1 [16]) | CMP (Human alphaherpesvirus 1 [17]) | CMP (Human alphaherpesvirus 1 [18]) | MST (Human alphaherpesvirus 1 [19]) | MST (Human alphaherpesvirus 1 [20]) | further results
COC(=O)P(=O)(O)O[C@H]1C[C@H](n2cc(CCCl)c(=O)[nH]c2=O)O[C@@H]1CO | > 242 µM | > 242 µM | >=800 uM | > 242 µM | > 242 µM |  |  |  |  |  |  |  |  |  |  |  |  |  |  |  | 
CCOC(=O)P(=O)(OC)OC[C@H]1O[C@@H](n2ccc(=O)[nH]c2=O)C[C@@H]1O (stereo not given in full) | > 264 µM | > 264 µM | >=872 uM | > 264 µM | > 264 µM |  |  |  |  |  |  |  |  |  |  |  |  |  |  |  | 
COC(=O)P(=O)(O)OC[C@H]1O[C@@H](n2cc(CCCl)c(=O)[nH]c2=O)C[C@@H]1O | 24.2 µM (≈ 9.99 µg/mL) | 242 µM (≈ 99.9 µg/mL) | >=800 uM | 24.2 µM (≈ 9.99 µg/mL) | > 242 µM | 75 | 242 µM (≈ 99.9 µg/mL) | > 242 µM | 67 | 33 | 11.8 days | 16.3 days | 75 | > 242 µM | 14.1 days | 13.7 days | 58 | 75 | 12.6 days | 12.7 days | MIC (Human alphaherpesvirus 2 [5]): > 242 µM
CCOC(=O)P(=O)(O)O[C@H]1C[C@H](n2cc(CCCl)c(=O)[nH]c2=O)O[C@@H]1CO | > 234 µM | > 234 µM | >=773 uM | 234 µM (≈ 99.9 µg/mL) | > 234 µM | 75 |  |  | 75 | 8 | 11.5 days | 18.9 days | 83 |  | 15.6 days | 11.8 days | 42 | 83 | 11.3 days | 11.9 days | MDL (Mus musculus [21]): 9.7 days; lesions (Mus musculus [22]): 90
O=C(CP(=O)(O)O)O[C@H]1C[C@H](n2cc(CCCl)c(=O)[nH]c2=O)O[C@@H]1CO | 72.7 µM (≈ 30 µg/mL) | 72.7 µM (≈ 30 µg/mL) | 800 µM | 24.2 µM (≈ 9.99 µg/mL) | 242 µM (≈ 99.9 µg/mL) |  | 242 µM (≈ 99.9 µg/mL) | > 242 µM |  |  |  |  |  | > 242 µM |  |  |  |  |  |  | MIC (Human alphaherpesvirus 2 [23]): > 242 µM
CCOC(=O)CP(=O)(O)O[C@H]1C[C@H](n2cc(CCCl)c(=O)[nH]c2=O)O[C@@H]1CO | > 227 µM | > 227 µM | 749 µM | > 227 µM | > 227 µM |  |  |  |  |  |  |  |  |  |  |  |  |  |  |  | MDL (Mus musculus [21]): 9.4 days; lesions (Mus musculus [22]): 80
COP(=O)(CC(=O)OC[C@H]1O[C@@H](n2cc(CCCl)c(=O)[nH]c2=O)C[C@@H]1O)OC | 6.8 µM (≈ 3 µg/mL) | > 227 µM | 749 µM | 6.8 µM (≈ 3 µg/mL) | > 227 µM | 75 | 227 µM (≈ 100 µg/mL) | > 227 µM | 83 | 8 | 13.3 days | 19.2 days | 58 | > 227 µM | 13 days | 12.2 days | 75 | 67 | 13.5 days | 11.2 days | MIC (Human alphaherpesvirus 2 [23]): > 227 µM
CC(C)(C)OC(=O)CP(=O)(O)OC[C@H]1O[C@@H](n2cc(CCCl)c(=O)[nH]c2=O)C[C@@H]1O | > 213 µM | > 213 µM | >=704 uM | > 213 µM | > 213 µM | 58 |  |  | 83 | 50 | 12.9 days | 15.4 days | 83 |  | 12.8 days | 13.3 days | 67 | 67 | 11.5 days | 11.3 days | 
CCOC(=O)P(=O)(OC)OC[C@H]1O[C@@H](n2cc(C)c(=O)[nH]c2=O)C[C@@H]1O (stereo not given in full) | > 255 µM | > 255 µM | >=842 uM | > 255 µM | > 255 µM |  |  |  |  |  |  |  |  |  |  |  |  |  |  |  | 
COP(=O)(CC(=O)OC[C@H]1O[C@@H](n2cc(C)c(=O)[nH]c2=O)C[C@@H]1O)OC | > 255 µM | > 255 µM | >=842 uM | > 255 µM | > 255 µM |  |  |  |  |  |  |  |  |  |  |  |  |  |  |  | 
O=C(OCc1ccccc1)P(=O)(O)OC[C@H]1O[C@@H](n2cc(CCCl)c(=O)[nH]c2=O)C[C@@H]1O | 20.5 µM (≈ 10 µg/mL) | > 205 µM | 675 µM | 20.5 µM (≈ 10 µg/mL) | > 205 µM | 33 | 20.5 µM (≈ 10 µg/mL) | > 205 µM | 50 | 8 | 13.8 days | 19.3 days | 67 | > 205 µM | 16.3 days | 16.8 days | 33 | 67 | 12.7 days | 14.3 days | MIC (Human alphaherpesvirus 2 [5]): 205 µM (≈ 100 µg/mL); MDL (Mus musculus [21]): 8.1 days; lesions (Mus musculus [22]): 100
CCOC(=O)P(=O)(O)OC[C@H]1O[C@@H](n2cc(CCCl)c(=O)[nH]c2=O)C[C@@H]1O | 23.4 µM (≈ 9.99 µg/mL) | 234 µM (≈ 99.9 µg/mL) | >=773 uM | 23.4 µM (≈ 9.99 µg/mL) | > 234 µM | 50 | 70.3 µM (≈ 30 µg/mL) | > 234 µM | 75 | 0 | 13.8 days | 20 days | 92 | > 234 µM | 16.5 days | 15.3 days | 33 | 58 | 10.1 days | 11.9 days | MIC (Human alphaherpesvirus 2 [5]): 234 µM (≈ 99.9 µg/mL); MDL (Mus musculus [21]): 6.7 days; lesions (Mus musculus [22]): 80
CCOC(=O)CP(=O)(O)OC[C@H]1O[C@@H](n2cc(CCCl)c(=O)[nH]c2=O)C[C@@H]1O | > 227 µM | > 227 µM | 749 µM | > 227 µM | > 227 µM | 42 |  |  | 58 | 42 | 12.2 days | 15.5 days | 83 |  | 11.3 days | 15.9 days | 83 | 75 | 11.9 days | 13.6 days | 
O=C(O)CP(=O)(O)OC[C@H]1O[C@@H](n2cc(CCCl)c(=O)[nH]c2=O)C[C@@H]1O | 2.3 µM (≈ 0.949 µg/mL) | 69.6 µM (≈ 28.7 µg/mL) | 766 µM | 2.3 µM (≈ 0.949 µg/mL) | 232 µM (≈ 95.8 µg/mL) | 50 | 23.2 µM (≈ 9.58 µg/mL) | 23.2 µM (≈ 9.58 µg/mL) | 92 | 25 | 14.2 days | 17.3 days | 100 | 232 µM (≈ 95.8 µg/mL) | 14.1 days | 15.3 days | 58 | 50 | 8.6 days | 11.2 days | MDL (Mus musculus [21]): 5.3 days; lesions (Mus musculus [22]): 60; MIC (Human alphaherpesvirus 2 [23]): > 232 µM
CCOC(=O)CP(=O)(OC)OC[C@H]1O[C@@H](n2ccc(=O)[nH]c2=O)C[C@@H]1O (stereo not given in full) | > 255 µM | > 255 µM | >=842 uM | > 255 µM | > 255 µM |  |  |  |  |  |  |  |  |  |  |  |  |  |  |  | 
COP(=O)(CC(=O)O[C@H]1C[C@H](n2cc(CCCl)c(=O)[nH]c2=O)O[C@@H]1CO)OC | 68.1 µM (≈ 30 µg/mL) | 6.8 µM (≈ 3 µg/mL) | 227 µM | 0.7 µM (≈ 0.309 µg/mL) | 22.7 µM (≈ 10 µg/mL) |  | 227 µM (≈ 100 µg/mL) | > 227 µM |  |  |  |  |  | > 227 µM |  |  |  |  |  |  | MIC (Human alphaherpesvirus 2 [5]): 227 µM (≈ 100 µg/mL)
CCOC(=O)CP(=O)(OC)OC[C@H]1O[C@@H](n2cc(C)c(=O)[nH]c2=O)C[C@@H]1O (stereo not given in full) | > 246 µM | > 246 µM | >=812 uM | > 246 µM | > 246 µM |  |  |  |  |  |  |  |  |  |  |  |  |  |  |  | 
CCOC(=O)P(=O)(Nc1ccccc1)OC[C@H]1O[C@@H](n2cc(CCCl)c(=O)[nH]c2=O)C[C@@H]1O (stereo not given in full) | 2 µM (≈ 1 µg/mL) | 59.8 µM (≈ 30 µg/mL) | 658 µM | 2 µM (≈ 1 µg/mL) | > 199 µM | 25 | 59.8 µM (≈ 30 µg/mL) | > 199 µM | 50 | 25 | 13.1 days | 18 days | 100 | > 199 µM | 13.9 days | 17.8 days | 67 | 75 | 11.4 days | 15.4 days | MIC (Human alphaherpesvirus 2 [5]): 199 µM (≈ 99.9 µg/mL)
